Assay results reported in US10738041B2, “Ferroportin inhibitors” (Vifor (International) AG, priority 2015, dated 2020).
Marks after values point to notes of the source that are not given here.

Key:
b2m−/− mice [1] = assay: Prevention of iron overload in beta2-microglobulin deficient mice; type: in vivo, mouse; conditions: 14 day treatment; for 58Fe Liver Iron Reduction (%): ICP-MS; for Total Liver Iron Reduction (%) / Total Spleen Iron Increase (%): ICP-OES
Description: The efficacy of the Fpn inhibitors to prevent liver iron accumulation in b2m−/− mice was investigated. Three weeks old b2−/− mice fed LID were dosed with either Fpn inhibitor or vehicle (methylcellulose; 10 ml/kg). Mice had access to drinking water supplemented with 1 mM^58Fe(II)-sulfate and 10 mM ascorbic acid. Dosing of Fpn inhibitor or vehicle followed by exposure to iron-containing water was repeated for 14 days. Mice were euthanized and the liver and spleen iron contents were analyzed by ICP-OES (all iron isotopes) and liver tissue was also analyzed for ^58Fe concentration (ICP-MS).

b2m−/− mice [2] = assay: Correction of hyperferremia in beta2-microglobulin deficient mice; type: in vivo, mouse
Excerpt: Mutations in genes involved in sensing the systemic iron stores, such as hepcidin (Hamp1), hemochromatosis protein (HFE), hemojuvelin (HJV) and transferrin receptor 2 (TFR2) cause iron overload in mice and men. HFE, HJV and TFR2 molecules on hepatocytes are necessary for signaling of appropriate hepcidin production and their deficiency results in pathophysiologically low hepcidin levels and excessive iron absorption. HFE mutations is the most frequent cause of hereditary hemochromatosis (HH) in Caucasian adults. HFE is a MHC class I-like membrane molecule that associates with beta 2-microglobulin and participates in hepcidin transcriptional regulation through the bone morphogenetic protein receptor (BMPR) pathway. HFE−/− mice have decreased hepcidin levels, develop hyperferremia and high hepatic iron levels, which makes them a suitable animal model for studying iron overload in humans (Zhou, 1998). Mice deficient in beta 2-microglobulin (b2m−/−) develop hyperferremia and hemochromatosis similarly to HFE−/− animals, as beta 2-microglobulin is necessary for the cell-surface expression and function of HFE (Rothenberg and Voland, 1996). Due to the unavailability of HFE−/− mice, b2m−/− mice were used as a model of iron overload.
Female and male homozygous b2m−/− mice were supplied from Jackson Laboratories (B6.129P2-B2mtm1Unc/J, Stock Number: 002087) at age of 6 to 7 weeks and fed standard diet (Harlan Provimi Kliba 3436) ad libitum. Age and gender matched WT C57BL/6 mice were supplied by Charles River. To study the acute effects of ferroportin (Fpn) inhibitors in iron overload b2m−/− mice were treated with compounds or the corresponding amount of vehicle at a volume of 10 ml/kg body weight. […] WT controls received only vehicle. Three hours later, mice were pre-terminally anesthetized in isoflurane chambers and blood was collected by retro-orbital bleeding. Mice were sacrificed by cervical dislocation and spleens, livers and duodena were harvested and used for biomarker analysis. All experiments have been performed in compliance with license approved by the responsible veterinarian authorities. Serum was isolated by centrifugation of blood into gel-containing microtainers (BD Biosciences) and serum iron was determined by the MULTIGENT Iron assay (Abbott Diagnostics, Cat. 6K95). Four to nine mice per group were used and one-way ANOVA with Bonferroni's multiple comparison test was applied to analyze the statistical differences between the experimental groups.

ferroportin = biological target: T1, ferroportin (Homo sapiens, UniProt Q9NP59); assay: Inhibition of Iron Efflux by Ferroportin Inhibitors; type: cell-based; conditions: T47D cells, 58Fe in supernatant, 20 h; representative (FIG. 2)
T1 construct: host or cells: T47D cells
T1 sequence (Q9NP59 1-571): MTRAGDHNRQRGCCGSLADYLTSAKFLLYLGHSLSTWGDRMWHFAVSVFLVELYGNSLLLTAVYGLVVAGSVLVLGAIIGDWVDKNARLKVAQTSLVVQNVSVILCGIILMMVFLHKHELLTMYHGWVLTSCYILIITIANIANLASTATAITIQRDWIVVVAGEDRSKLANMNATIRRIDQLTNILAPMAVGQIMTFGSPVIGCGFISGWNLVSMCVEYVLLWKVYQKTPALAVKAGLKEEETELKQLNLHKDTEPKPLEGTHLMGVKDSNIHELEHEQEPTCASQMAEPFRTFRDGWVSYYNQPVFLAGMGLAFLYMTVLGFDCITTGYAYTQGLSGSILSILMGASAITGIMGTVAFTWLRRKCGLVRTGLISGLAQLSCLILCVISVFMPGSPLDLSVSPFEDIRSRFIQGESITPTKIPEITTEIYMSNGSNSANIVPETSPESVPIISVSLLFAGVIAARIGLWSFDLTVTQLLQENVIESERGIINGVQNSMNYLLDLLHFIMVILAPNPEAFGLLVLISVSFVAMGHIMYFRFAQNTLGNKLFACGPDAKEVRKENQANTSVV
Description: The activity of hepcidin and ferroportin inhibitor compounds regarding their ability to block iron export via ferroportin was tested on T47D cells (ECACC, Cat. 85102201) as described below.
Cells were plated in 24-well plates (Greiner, Cat. 662160) containing 350,000 cells/well and incubated overnight with 100 μM ^58Fe (^58Fe(II)-Sulfate, Vifor Pharma Batch No. ROR 3085) in 500 μM L-Ascorbic Acid (Sigma Aldrich, Cat. 795437) containing growth medium. […] A serial dilution of hepdicin (Bachem) or ferroportin inhibitors (4 μM-0.0064 μM, 5 fold dilution) was added in a total volume of 0.6 ml per well. Cells were incubated at 37° C. with 5% CO2 for 20 h. Supernatants were collected and ^58Fe was measured using inductively coupled plasma mass spectrometry (ICP-MS, Thermo Scientific, Element 2). Pellets were harvested for protein concentration measurements. Results are plotted as ng^58Fe in supernatant per mg protein in cell lysates.

With `O=C(NCc1ncccc1F)c1coc(C2CN(CCc3nc4ccccc4[nH]3)C2)n1` [Example 208] the “58Fe Liver Iron Reduction (%)” value (b2m−/− mice [1]; female, 20 mg/kg p.o. b.i.d.) was 71* %, the “Total Liver Iron Reduction (%)” value (b2m−/− mice [1]; female, 20 mg/kg p.o. b.i.d.) was 15% and the “Total Spleen Iron Increase (%)” value (b2m−/− mice [1]; female, 20 mg/kg p.o. b.i.d.) was 56** %. For the same compound, the “58Fe Liver Iron Reduction (%)” value (b2m−/− mice [1]; female, 60 mg/kg p.o. b.i.d.) was 87** %, the “Total Liver Iron Reduction (%)” value (b2m−/− mice [1]; female, 60 mg/kg p.o. b.i.d.) was 8% and the “Total Spleen Iron Increase (%)” value (b2m−/− mice [1]; female, 60 mg/kg p.o. b.i.d.) was 150*** %. For the same compound, the “58Fe Liver Iron Reduction (%)” value (b2m−/− mice [1]; male, 20 mg/kg p.o. b.i.d.) was 58%, the “Total Spleen Iron Increase (%)” value (b2m−/− mice [1]; male, 20 mg/kg p.o. b.i.d.) was 21% and the “58Fe Liver Iron Reduction (%)” value (b2m−/− mice [1]; male, 60 mg/kg p.o. b.i.d.) was 94** %. The “Total Liver Iron Reduction (%)” value (b2m−/− mice [1]; male, 60 mg/kg p.o. b.i.d.) was 84** %, the “Total Spleen Iron Increase (%)” value (b2m−/− mice [1]; male, 60 mg/kg p.o. b.i.d.) was 43% and the “Serum Iron Reduction (%)” value (b2m−/− mice [2]; female, Dose 20 mg/kg oral, blood collected 3 hours (##) after administration) was 9%. For the same compound, the “Serum Iron Reduction (%)” value (b2m−/− mice [2]; female, Dose 60 mg/kg oral, blood collected 3 hours (##) after administration) was 49*** %, the “Serum Iron Reduction (%)” value (b2m−/− mice [2]; male, Dose 20 mg/kg oral, blood collected 3 hours (##) after administration) was 44% and the “Serum Iron Reduction (%)” value (b2m−/− mice [2]; male, Dose 60 mg/kg oral, blood collected 3 hours (##) after administration) was 67** %.
`O=C(NCc1ncccc1F)c1coc(CCNCCc2nc3ccccc3[nH]2)n1` [Example 127] was tested, and the IC50 (ferroportin) was 0.08 µM, the “58Fe Liver Iron Reduction (%)” value (b2m−/− mice [1]; female, 20 mg/kg p.o. b.i.d.) was 34% and the “Total Liver Iron Reduction (%)” value (b2m−/− mice [1]; female, 20 mg/kg p.o. b.i.d.) was −38%. For the same compound, the “Total Spleen Iron Increase (%)” value (b2m−/− mice [1]; female, 20 mg/kg p.o. b.i.d.) was 71* %, the “58Fe Liver Iron Reduction (%)” value (b2m−/− mice [1]; female, 60 mg/kg p.o. b.i.d.) was 63*** % and the “Total Liver Iron Reduction (%)” value (b2m−/− mice [1]; female, 60 mg/kg p.o. b.i.d.) was 2%. For the same compound, the “Total Spleen Iron Increase (%)” value (b2m−/− mice [1]; female, 60 mg/kg p.o. b.i.d.) was 51%, the “58Fe Liver Iron Reduction (%)” value (b2m−/− mice [1]; male, 20 mg/kg p.o. b.i.d.) was 71*** % and the “Total Liver Iron Reduction (%)” value (b2m−/− mice [1]; male, 20 mg/kg p.o. b.i.d.) was 50** %. For the same compound, the “Total Spleen Iron Increase (%)” value (b2m−/− mice [1]; male, 20 mg/kg p.o. b.i.d.) was −7%, the “58Fe Liver Iron Reduction (%)” value (b2m−/− mice [1]; male, 60 mg/kg p.o. b.i.d.) was 73*** % and the “Total Liver Iron Reduction (%)” value (b2m−/− mice [1]; male, 60 mg/kg p.o. b.i.d.) was 65*** %. For the same compound, the “Total Spleen Iron Increase (%)” value (b2m−/− mice [1]; male, 60 mg/kg p.o. b.i.d.) was −16%, the “Serum Iron Reduction (%)” value (b2m−/− mice [2]; female, Dose 20 mg/kg oral, blood collected 1 or 3 hours after administration (time not given)) was 47*** % and the “Serum Iron Reduction (%)” value (b2m−/− mice [2]; female, Dose 60 mg/kg oral, blood collected 1 or 3 hours after administration (time not given)) was 74*** %. The “Serum Iron Reduction (%)” value (b2m−/− mice [2]; male, Dose 20 mg/kg oral, blood collected 1 or 3 hours after administration (time not given)) was 21% and the “Serum Iron Reduction (%)” value (b2m−/− mice [2]; male, Dose 60 mg/kg oral, blood collected 1 or 3 hours after administration (time not given)) was 83** %.
With `O=C(NCc1ncccc1F)c1csc(CCNCCc2nc3ccccc3[nH]2)n1` [Example 94] the “Total Liver Iron Reduction (%)” value (b2m−/− mice [1]; female, 60 mg/kg p.o. b.i.d.) was 57%, the “Total Spleen Iron Increase (%)” value (b2m−/− mice [1]; female, 60 mg/kg p.o. b.i.d.) was 65% and the “Total Liver Iron Reduction (%)” value (b2m−/− mice [1]; male, 60 mg/kg p.o. b.i.d.) was 79%. For the same compound, the “correction of elevated serum iron” value (b2m−/− mice [2]; b2m−/− mice, 50 mg/kg p.o. for 3 h (FIG. 5)) was “corrected the elevated serum iron to the levels observed in WT controls”.
With `CC[C@H](C)[C@@H]1NC(=O)[C@@H](NC(=O)[C@@H](NC(=O)[C@@H]2CCCN2C(=O)[C@H](Cc2ccccc2)NC(=O)[C@H](Cc2c[nH]cn2)NC(=O)[C@@H](NC(=O)[C@@H](N)CC(=O)O)[C@@H](C)O)[C@@H](C)CC)CSSC[C@@H](C(=O)N[C@@H](CCCCN)C(=O)N[C@H](C(=O)O)[C@@H](C)O)NC(=O)[C@@H]2CSSC[C@@H]3NC(=O)[C@@H]4CSSC[C@H](NC(=O)[C@H](Cc5ccccc5)NC1=O)C(=O)N[C@@H](CSSC[C@H](NC(=O)[C@H](CCCCN)NC(=O)[C@H](CO)NC(=O)[C@H](CCCNC(=N)N)NC(=O)[C@H](Cc1c[nH]cn1)NC3=O)C(=O)NCC(=O)N[C@@H](CCSC)C(=O)N2)C(=O)NCC(=O)N4` [hepcidin, reference compound] the IC50 (ferroportin) was 0.086 µM.
